Experimental data reported in patent US10590109B2, “Heterocyclic compounds used as FGFR inhibitors” (Nanjing InnoCare Pharma Tech Co., Ltd., priority 2016, dated 2020).

Assays:
[1] = target: human recombinant FGFR2 catalytic structural domain protein (Homo sapiens (Human), UniProt P21802); test: FGFR2 activity inhibition test (HTRF kinase assay); format: biochemical; settings: 50 μM ATP
Protocol: FGFR2 Activity Inhibition Test
The influence of the compound according to the present invention on the activity of fibroblast growth factor receptor 2 (FGFR2) was evaluated by an in vitro kinase assay experiment.
(§1) The experimental method is summarized as follows:
The in vitro activity of FGFR2 was determined by assaying the phosphorylation level of the substrate in the kinase reaction, by means of an HTRF kinase assay kit. The reaction buffer comprised the following components: 5-fold diluted Enzymatic buffer/kinase 5× (Cisbio, Catalog number 62EZBFDD) (main ingredient: 50 mM HEPES, pH 7.0), 5 mM MgCl2, 1 mM DTT; the human recombinant FGFR2 catalytic structural domain protein (amino acids 400-821) was commercially available from Beijing Sino Biological Inc., diluted with the reaction buffer to a 0.045 ng/μL kinase solution; the substrate reaction solution comprised a biotin labeled tyrosine kinase substrate diluted with the reaction buffer to 800 nM (Cisbio, catalog number 62TK0PEC), and 50 μM ATP, and the assay solution comprised an Eu^3+ labeled cage-shaped antibody (Cisbio, Catalog number 61T66KLB) diluted with the assay buffer (Cisbio, Catalog number 62SDBRDF) to 0.125 ng/μL, and 50 nM streptavidin labeled XL665 (Cisbio, Catalog number 610SAXLB).
The compound was dissolved and diluted in 100% DMSO to 100 μM, then 4-fold-series diluted with DMSO to a minimum concentration of 0.0061 μM, and each concentration point was then 40-fold diluted with the reaction buffer. If the IC50 value of the compound was very low, the initial concentration of the compound could be reduced.
4 μL of a compound solution and 2 μL of an FGFR2 kinase solution were added into a 384 well assay plate (Thermo, Catalog number 264706), mixed uniformly and then incubated for 15 min at room temperature; subsequently, 4 μL of the substrate reaction solution was added therein, and the reaction mixture was incubated for 60 min at room temperature; and then 10 μL of an assay solution of an equal volume to the reaction was added therein and mixed uniformly, followed by placement at room temperature. After 60 min, the enzyme reaction was terminated by EDTA in the assay solution, and the phosphorylated products were identified by both the Eu^3+ labeled cage-shaped antibody (donor) and the streptavidin labeled XL665 antibody (receptor) at the same time. After the excitation with laser, the donors and receptors that were close to each other experienced energy resonance transfer, and the energy transferred from the donor (620 nm) to the receptor (665 nm) could be detected with Envision. The ratio of 665/620 is in positive correlation to the phosphorylation degree of the substrate, thereby to detect the FGFR2 kinase activity. […] The inhibition percentage of the compound against FGFR2 activity could be calculated with the following formula: Inhibition percentage=100−100*(signalcompound−signalnegative control)/(signalpositive control−signalnegative control)
(§2) The IC50 value of the compound was calculated by the following formula, from 10 concentration points, with XLfit (ID Business Solutions Ltd., UK): Y=Bottom+(Top−Bottom)/(1+10^((Log IC50−X)*slope factor))
(§3) Where, Y is the inhibition percentage, Bottom is the bottom plateau of the curve (the bottom plateau of the S-type curve), Top is the top plateau of the curve (the top plateau of the S-type curve), and X is the log value of the compound concentration to be measured.

[2] = target: human recombinant FGFR1 catalytic structural domain protein (Homo sapiens (Human), UniProt P11362); test: FGFR1 activity inhibition test (HTRF kinase assay); format: biochemical; settings: 40 μM ATP
Sequence of human recombinant FGFR1 catalytic structural domain protein (P11362 other isoform, or with tags, fused parts or gaps): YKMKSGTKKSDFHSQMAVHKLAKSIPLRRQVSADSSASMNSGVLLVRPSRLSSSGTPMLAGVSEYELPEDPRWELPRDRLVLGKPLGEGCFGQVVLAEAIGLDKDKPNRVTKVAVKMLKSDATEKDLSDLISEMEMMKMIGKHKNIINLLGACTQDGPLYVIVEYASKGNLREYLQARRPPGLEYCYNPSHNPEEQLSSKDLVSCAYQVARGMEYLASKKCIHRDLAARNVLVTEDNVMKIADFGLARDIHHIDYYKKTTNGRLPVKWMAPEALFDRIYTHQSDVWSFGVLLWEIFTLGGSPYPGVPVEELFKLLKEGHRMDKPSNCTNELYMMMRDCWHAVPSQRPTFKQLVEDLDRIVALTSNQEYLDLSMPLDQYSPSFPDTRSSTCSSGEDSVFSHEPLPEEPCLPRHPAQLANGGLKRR
Protocol: FGFR1 Activity Inhibition Test
The influence of the compound according to the present invention on the activity of fibroblast growth factor receptor 1 (FGFR1) was evaluated by an in vitro kinase assay experiment.
as §1
The in vitro activity of FGFR1 was determined by assaying the phosphorylation level of the substrate in the kinase reaction, by means of an HTRF kinase assay kit.
If the IC50 value of the compound was very low, the initial concentration of the compound could be reduced.
After 60 min, the enzyme reaction was terminated by EDTA in the assay solution, and the phosphorylated products were identified by both the Eu^3+ labeled cage-shaped antibody (donor) and the streptavidin labeled XL665 antibody (receptor) at the same time. […] The inhibition percentage of the compound against FGFR1 activity could be calculated with the following formula: Inhibition percentage=100−100*(signalcompound−signalnegative control)/(signalpositive control−signalnegative control)
as §2, §3

Sequence of human recombinant FGFR2 catalytic structural domain protein (P21802 400-821): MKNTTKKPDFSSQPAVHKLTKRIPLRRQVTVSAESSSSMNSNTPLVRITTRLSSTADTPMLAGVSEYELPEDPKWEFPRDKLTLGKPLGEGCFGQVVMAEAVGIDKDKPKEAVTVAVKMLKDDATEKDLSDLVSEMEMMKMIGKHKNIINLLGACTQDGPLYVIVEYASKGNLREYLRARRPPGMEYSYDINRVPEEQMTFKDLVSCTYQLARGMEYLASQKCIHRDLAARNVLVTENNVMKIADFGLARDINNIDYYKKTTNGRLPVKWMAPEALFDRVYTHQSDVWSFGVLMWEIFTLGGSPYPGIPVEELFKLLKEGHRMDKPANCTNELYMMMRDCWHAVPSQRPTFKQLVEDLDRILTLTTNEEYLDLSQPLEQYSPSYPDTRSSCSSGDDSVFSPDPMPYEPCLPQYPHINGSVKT

For COC[C@@H](C)Oc1cc(NC(=O)N(C)c2ccc(CN3CCOCC3=O)c(C=O)n2)ncc1C#N [Compound 14, (R)-3-(5-cyano-4-((1-methoxyprop-2-yl)oxo)pyrid-2-yl)-1-(6-formyl-5-((3-carbonylmorpholino)methyl)pyrid-2-yl)-1-methylurea], which IC50 [1] is on record?
The IC50 was over 1000 nM.

And the IC50 [2]?
Its IC50 is over 1000 nM.
